Results on three compounds are retold here after ChEMBL document CHEMBL1149529 (Bioorg Med Chem Lett, 2007).

Data set [1] in a line: Oral bioavailability in rat at 15 mg/kg, po. The conditions noted are these: in vivo. The data set is classed as ADME, organism-based.
Data set [2] can be described thus: Clearance in rat at 5 mg/kg, iv. On the set-up: dose 5 mg/kg, route intravenous. The data set is classed as ADME, organism-based. Particulars: in vivo.

Usually bioavailability stands for dose-corrected exposure relative to a reference, in per cent. Higher therefore signals good availability. One may read the clearance as a measure of how efficiently the substance is removed, as volume per time. Read a low clearance as inefficient removal. In data set [1], `CN(CC1=CC2C(=O)C(C(=O)NCc3ccc(Cl)cc3)=CN(C)C2S1)C[C@@H](O)c1ccccn1` (stereo partly specified) returned a bioavailability of 45%. This compound had a clearance in data set [2] of 46.7 mL/min/kg.
As for `Cc1c(CN(C)C[C@@H](O)c2ncccn2)sc2c(=O)c(C(=O)NCc3ccc(F)cc3)cn(C)c12`, the bioavailability in data set [1] stood at 29%. In data set [2], the clearance was 35 mL/min/kg.
`Cc1c(CN(C)C[C@@H](O)c2ccccn2)sc2c(=O)c(C(=O)NCc3ccc(Cl)cc3)cn(C)c12` displayed a bioavailability in data set [1] of 30%. Further, the clearance in data set [2] was 23.3 mL/min/kg.
